Source: PubChem BioAssay AID1259407 (Chemical Carcinogenesis Research Information System (CCRIS), 2018)
The source made the active and inactive calls. The rule behind the calls is not given here.

Test system: CCRIS mutagenicity, Ames/micronucleus/aberration tests
Assay: CCRIS mutagenicity studies
[1] = Test System: AMES SALMONELLA TYPHIMURIUM, Strain/Indicator: TA98, Metabolic Activation: NONE, Method: PREINCUBATION
[2] = Test System: AMES SALMONELLA TYPHIMURIUM, Strain/Indicator: TA98, Metabolic Activation: RAT, LIVER, S-9, AROCLOR 1254, Method: PREINCUBATION
[3] = Test System: AMES SALMONELLA TYPHIMURIUM, Strain/Indicator: TA100, Metabolic Activation: NONE, Method: PREINCUBATION
[4] = Test System: AMES SALMONELLA TYPHIMURIUM, Strain/Indicator: TA100, Metabolic Activation: RAT, LIVER, S-9, AROCLOR 1254, Method: PREINCUBATION

C[Si](C)(Cl)Cl
mutagenic call (Test System: AMES SALMONELLA TYPHIMURIUM, Strain/Indicator: TA98, Metabolic Activation: HAMSTER, LIVER, S-9, AROCLOR 1254, Method: PREINCUBATION): inactive; negative | mutagenic call [1]: inactive; negative | mutagenic call (Test System: AMES SALMONELLA TYPHIMURIUM, Strain/Indicator: TA98, Metabolic Activation: NONE, Method: STANDARD PLATE): inactive; negative | mutagenic call (Test System: AMES SALMONELLA TYPHIMURIUM, Strain/Indicator: TA98, Metabolic Activation: RAT LIVER S-9, AROCLOR 1254, Method: STANDARD PLATE): inactive; negative | mutagenic call [2]: inactive; negative | mutagenic call (Test System: AMES SALMONELLA TYPHIMURIUM, Strain/Indicator: TA100, Metabolic Activation: HAMSTER, LIVER, S-9, AROCLOR 1254, Method: PREINCUBATION): inactive; negative | mutagenic call [3]: inactive; negative | mutagenic call (Test System: AMES SALMONELLA TYPHIMURIUM, Strain/Indicator: TA100, Metabolic Activation: NONE, Method: STANDARD PLATE): inactive; negative | mutagenic call (Test System: AMES SALMONELLA TYPHIMURIUM, Strain/Indicator: TA100, Metabolic Activation: RAT LIVER S-9, AROCLOR 1254, Method: STANDARD PLATE): inactive; negative | mutagenic call [4]: inactive; negative | mutagenic call (Test System: AMES SALMONELLA TYPHIMURIUM, Strain/Indicator: TA1535, Metabolic Activation: HAMSTER, LIVER, S-9, AROCLOR 1254, Method: PREINCUBATION): inactive; negative | mutagenic call (Test System: AMES SALMONELLA TYPHIMURIUM, Strain/Indicator: TA1535, Metabolic Activation: NONE, Method: PREINCUBATION): inactive; negative | mutagenic call (Test System: AMES SALMONELLA TYPHIMURIUM, Strain/Indicator: TA1535, Metabolic Activation: NONE, Method: STANDARD PLATE): inactive; negative | mutagenic call (Test System: AMES SALMONELLA TYPHIMURIUM, Strain/Indicator: TA1535, Metabolic Activation: RAT LIVER S-9, AROCLOR 1254, Method: STANDARD PLATE): inactive; negative | mutagenic call (Test System: AMES SALMONELLA TYPHIMURIUM, Strain/Indicator: TA1535, Metabolic Activation: RAT, LIVER, S-9, AROCLOR 1254, Method: PREINCUBATION): inactive; negative | mutagenic call (Test System: AMES SALMONELLA TYPHIMURIUM, Strain/Indicator: TA1537, Metabolic Activation: HAMSTER, LIVER, S-9, AROCLOR 1254, Method: PREINCUBATION): inactive; negative | mutagenic call (Test System: AMES SALMONELLA TYPHIMURIUM, Strain/Indicator: TA1537, Metabolic Activation: NONE, Method: PREINCUBATION): inactive; negative | mutagenic call (Test System: AMES SALMONELLA TYPHIMURIUM, Strain/Indicator: TA1537, Metabolic Activation: NONE, Method: STANDARD PLATE): inactive; negative | mutagenic call (Test System: AMES SALMONELLA TYPHIMURIUM, Strain/Indicator: TA1537, Metabolic Activation: RAT LIVER S-9, AROCLOR 1254, Method: STANDARD PLATE): inactive; negative | mutagenic call (Test System: AMES SALMONELLA TYPHIMURIUM, Strain/Indicator: TA1537, Metabolic Activation: RAT, LIVER, S-9, AROCLOR 1254, Method: PREINCUBATION): inactive; negative | mutagenic call (Test System: AMES SALMONELLA TYPHIMURIUM, Strain/Indicator: TA1538, Metabolic Activation: HAMSTER, LIVER, S-9, AROCLOR 1254, Method: PREINCUBATION): inactive; negative | mutagenic call (Test System: AMES SALMONELLA TYPHIMURIUM, Strain/Indicator: TA1538, Metabolic Activation: NONE, Method: PREINCUBATION): inactive; negative | mutagenic call (Test System: AMES SALMONELLA TYPHIMURIUM, Strain/Indicator: TA1538, Metabolic Activation: NONE, Method: STANDARD PLATE): inactive; negative | mutagenic call (Test System: AMES SALMONELLA TYPHIMURIUM, Strain/Indicator: TA1538, Metabolic Activation: RAT LIVER S-9, AROCLOR 1254, Method: STANDARD PLATE): inactive; negative | mutagenic call (Test System: AMES SALMONELLA TYPHIMURIUM, Strain/Indicator: TA1538, Metabolic Activation: RAT, LIVER, S-9, AROCLOR 1254, Method: PREINCUBATION): inactive; negative | mutagenic call (Test System: E. COLI, Strain/Indicator: P3078(POL A-), Metabolic Activation: NONE, Method: SPOT TEST): inactive; negative | mutagenic call (Test System: E. COLI, Strain/Indicator: P3078 POLA, Metabolic Activation: RAT LIVER S-9, AROCLOR 1254, Method: SPOT TEST): inactive; negative | mutagenic call (Test System: E. COLI, Strain/Indicator: W3110, Metabolic Activation: NONE, Method: SPOT TEST): inactive; negative | mutagenic call (Test System: E. COLI, Strain/Indicator: W3110, Metabolic Activation: RAT LIVER S-9, AROCLOR 1254, Method: SPOT TEST): inactive; negative | mutagenic call (Test System: MOUSE LYMPHOMA, Strain/Indicator: L5178Y (TK+/TK-), Metabolic Activation: RAT, LIVER, S-9, AROCLOR 1254, Method: SUSPENSION/PLATE): inactive; negative. reevaluation of results: inconclusive | mutagenic call (Test System: MOUSE LYMPHOMA, Strain/Indicator: L5178Y (TK+/TK-), Metabolic Activation: RAT, LIVER, S-9, Method: SUSPENSION/PLATE): inactive; negative

Cc1cnc2c(C)cc3c(nc(N)n3C)c2n1
mutagenic call (Test System: AMES SALMONELLA TYPHIMURIUM, Strain/Indicator: TA98, Metabolic Activation: RAT, LIVER, S-9, AROCLOR 1254, Method: STANDARD PLATE): active; positive

C[C-](C)[N+](=O)[O-]
mutagenic call [1]: active; positive | mutagenic call [2]: active; positive | mutagenic call [3]: active; positive | mutagenic call [4]: active; positive | mutagenic call (Test System: AMES SALMONELLA TYPHIMURIUM, Strain/Indicator: TA100, Metabolic Activation: RAT, LIVER, S-9, AROCLOR, Method: PREINCUBATION): active; positive | mutagenic call (Test System: AMES SALMONELLA TYPHIMURIUM, Strain/Indicator: TA102, Metabolic Activation: NONE, Method: PREINCUBATION): active; positive | mutagenic call (Test System: AMES SALMONELLA TYPHIMURIUM, Strain/Indicator: TA102, Metabolic Activation: RAT, LIVER, S-9, AROCLOR 1254, Method: PREINCUBATION): active; positive | mutagenic call (Test System: AMES SALMONELLA TYPHIMURIUM, Strain/Indicator: TA102, Metabolic Activation: RAT, LIVER, S-9, AROCLOR, Method: PREINCUBATION): active; positive | mutagenic call (Test System: UDS CHINESE HAMSTER V-79 CELLS, Metabolic Activation: NONE, Method: AUTORADIOGRAPHY): active; positive | mutagenic call (Test System: UDS CHINESE HAMSTER V-79 CELLS, Strain/Indicator: V-79-MZ/CYTIDINE INCORPORATION, Metabolic Activation: NONE, Method: AUTORADIOGRAPHY): inactive; negative | mutagenic call (Test System: UDS CHINESE HAMSTER V-79 CELLS, Strain/Indicator: V-79-RHST20/CYTIDINE INCORPORATION, Metabolic Activation: NONE, Method: AUTORADIOGRAPHY): inactive; negative | mutagenic call (Test System: UDS CHINESE HAMSTER V-79 CELLS, Strain/Indicator: V-79-RHSTA/CYTIDINE INCORPORATION, Metabolic Activation: NONE, Method: AUTORADIOGRAPHY): inactive; negative | mutagenic call (Test System: UDS CHINESE HAMSTER V-79 CELLS, Strain/Indicator: V-79-RPST-IV/CYTIDINE INCORPORATION, Metabolic Activation: NONE, Method: AUTORADIOGRAPHY): active; positive | mutagenic call (Test System: UDS HUMAN HEPATOCYTES, Strain/Indicator: THY INCORP, Metabolic Activation: NONE, Method: AUTORADIOGRAPHY): active; positive | mutagenic call (Test System: UDS MOUSE HEPATOCYTES, Strain/Indicator: THY INCORP, Metabolic Activation: NONE, Method: AUTORADIOGRAPHY): active; positive | mutagenic call (Test System: UDS RAT HEPATOCYTES, Strain/Indicator: THY INCORP, Metabolic Activation: NONE, Method: AUTORADIOGRAPHY): active; positive

[NH-]CCC(=O)[N-][C@@H](Cc1cnc[nH]1)C(=O)[O-].[Zn+2]
mutagenic call (Test System: AMES SALMONELLA TYPHIMURIUM, Strain/Indicator: SD100, Metabolic Activation: NONE, Method: PREINCUBATION): inactive; negative | mutagenic call (Test System: AMES SALMONELLA TYPHIMURIUM, Strain/Indicator: SD100, Metabolic Activation: RAT, LIVER, S-9, AROCLOR 1254, Method: PREINCUBATION): inactive; negative | mutagenic call (Test System: AMES SALMONELLA TYPHIMURIUM, Strain/Indicator: TM677, Metabolic Activation: NONE, Method: PREINCUBATION): inactive; negative | mutagenic call (Test System: AMES SALMONELLA TYPHIMURIUM, Strain/Indicator: TM677, Metabolic Activation: RAT, LIVER, S-9, AROCLOR 1254, Method: PREINCUBATION): inactive; negative | mutagenic call (Test System: E. COLI, Strain/Indicator: WP2 UVRA, Metabolic Activation: NONE, Method: PREINCUBATION): inactive; negative | mutagenic call (Test System: E. COLI, Strain/Indicator: WP2 UVRA, Metabolic Activation: RAT, LIVER, S-9, AROCLOR 1254, Method: PREINCUBATION): inactive; negative
